Experimental data taken from PubChem BioAssay AID330 (DTP/NCI, 2004).
Where “and” joins values, the source holds several entries; their conditions need not be identical. Equal values may be shown once. Toxic doses and inconclusive results are not listed.

System: P388 leukemia ip, CD2F1 mice, survival T/C
Assay: NCI In Vivo Anticancer Drug Screen. Data for tumor model P388 Leukemia (intraperitoneal) in CD2F1 (CDF1) mice
Conditions: endpoint: median survival time, higher = longer survival
In short: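 Mice carrying the transplanted tumor received test compound or vehicle. Survival was recorded in each group, and the value is the treated-group measurement divided by that of the vehicle-treated control group.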

[1] = dose: 50.0 mg/kg/injection, schedule: Q01DX005 (ip), vehicle: saline with Tween-80
[2] = dose: 50.0 mg/kg/injection, schedule: Q01DX009 (ip), vehicle: saline with Tween-80
[3] = dose: 100.0 mg/kg/injection, schedule: Q01DX009 (ip), vehicle: saline with Tween-80
[4] = dose: 60.0 mg/kg/injection, schedule: Q01DX005 (ip), vehicle: saline with Tween-80
[5] = dose: 120.0 mg/kg/injection, schedule: Q01DX005 (ip), vehicle: saline with Tween-80
[6] = dose: 240.0 mg/kg/injection, schedule: Q01DX005 (ip), vehicle: saline with Tween-80

## COc1cccc2c1C(=O)c1c(O)c3c(c(O)c1C2=O)CC(O)(/C(C)=N/NC(=O)CCCC(=O)N/N=C(\C)C1(O)Cc2c(O)c4c(c(O)c2C(OC2CC(N)C(O)C(C)O2)C1)C(=O)c1c(OC)cccc1C4=O)CC3OC1CC(N)C(O)C(C)O1 (configuration not stated)
dose: 0.2 mg/kg/injection, schedule: Q01DX009 (ip), vehicle: water
  T/C: 105 % of control
dose: 0.39 mg/kg/injection, schedule: Q01DX009 (ip), vehicle: water
  T/C: 90 % of control
dose: 0.78 mg/kg/injection, schedule: Q01DX009 (ip), vehicle: water
  T/C: 150 % of control
dose: 1.56 mg/kg/injection, schedule: Q01DX009 (ip), vehicle: water
  T/C: 188 % of control
dose: 3.13 mg/kg/injection, schedule: Q01DX009 (ip), vehicle: water
  T/C: 167 % of control

## CCCCCCCCCCCCNC(=O)c1ccc[n+](Cc2ccc(Cl)c(Cl)c2)c1
dose: 3.13 mg/kg/injection, schedule: Q01DX009 (ip), vehicle: saline with Tween-80
  T/C: 100 % of control
dose: 6.25 mg/kg/injection, schedule: Q01DX009 (ip), vehicle: saline with Tween-80
  T/C: 95 % of control
dose: 12.5 mg/kg/injection, schedule: Q01DX009 (ip), vehicle: saline with Tween-80
  T/C: 100 % of control

## Cc1nn(C(=O)c2ccncc2)c(C)c1N=Nc1ccc(S(=O)(=O)Nc2ncccn2)cc1
dose: 50.0 mg/kg/injection, schedule: Q01DX009 (ip), vehicle: Klucel (hydroxypropylcellulose) (HPC)
  T/C: 109 % of control
dose: 100.0 mg/kg/injection, schedule: Q01DX009 (ip), vehicle: Klucel (hydroxypropylcellulose) (HPC)
  T/C: 109 % of control
dose: 200.0 mg/kg/injection, schedule: Q01DX009 (ip), vehicle: Klucel (hydroxypropylcellulose) (HPC)
  T/C: 105 % of control

## CCn1c2ccc([N+](=O)[O-])cc2c2c([N+](=O)[O-])c(NC=O)ccc21
[1]
  T/C: 90 % of control
dose: 100.0 mg/kg/injection, schedule: Q01DX005 (ip), vehicle: saline with Tween-80
  T/C: 95 % of control
dose: 200.0 mg/kg/injection, schedule: Q01DX005 (ip), vehicle: saline with Tween-80
  T/C: 86 % of control

## COc1ccc(OC)c(/C=C(/C)[N+](=O)[O-])c1
dose: 44.0 mg/kg/injection, schedule: Q04DX003 (ip), vehicle: saline with Tween-80
  T/C: 119 % of control
dose: 66.0 mg/kg/injection, schedule: Q04DX003 (ip), vehicle: saline with Tween-80
  T/C: 117 % of control
dose: 100.0 mg/kg/injection, schedule: Q04DX003 (ip), vehicle: saline with Tween-80
  T/C: 123 % of control
dose: 150.0 mg/kg/injection, schedule: Q04DX003 (ip), vehicle: saline with Tween-80
  T/C: 124 % of control

## COc1cc(OC)c2c(=O)c3ccc([N+](=O)[O-])cc3n(C)c2c1
dose: 100.0 mg/kg/injection, schedule: Q01DX001 (ip), vehicle: saline with Tween-80
  T/C: 100 % of control
dose: 200.0 mg/kg/injection, schedule: Q01DX001 (ip), vehicle: saline with Tween-80
  T/C: 100 % of control

## CN(C)CC(CN(C)C)C(=O)/C=C/c1ccc(Cl)cc1Cl
dose: 7.5 mg/kg/injection, schedule: Q01DX005 (ip), vehicle: saline
  T/C: 104 % of control
dose: 15.0 mg/kg/injection, schedule: Q01DX005 (ip), vehicle: saline
  T/C: 97 % of control
dose: 30.0 mg/kg/injection, schedule: Q01DX005 (ip), vehicle: saline
  T/C: 100 % of control

## CC1CC2([Si](C)(C)C)C(=O)NC(=O)NC12 (configuration not stated)
dose: 25.0 mg/kg/injection, schedule: Q01DX005 (ip), vehicle: Klucel (hydroxypropylcellulose) (HPC)
  T/C: 112 % of control
dose: 50.0 mg/kg/injection, schedule: Q01DX005 (ip), vehicle: Klucel (hydroxypropylcellulose) (HPC)
  T/C: 103 % of control
dose: 100.0 mg/kg/injection, schedule: Q01DX005 (ip), vehicle: Klucel (hydroxypropylcellulose) (HPC)
  T/C: 112 % of control
dose: 200.0 mg/kg/injection, schedule: Q01DX005 (ip), vehicle: Klucel (hydroxypropylcellulose) (HPC)
  T/C: 99 % of control

## O=C(CC(=O)N1CCN(c2ccccc2)CC1)N1CCN(c2ccccc2)CC1
dose: 25.0 mg/kg/injection, schedule: Q01DX009 (ip), vehicle: saline with Tween-80
  T/C: 95 % of control
[2]
  T/C: 97 % of control
[3]
  T/C: 98 % of control
dose: 100.0 mg/kg/injection, schedule: Q01DX009 (ip), vehicle: saline
  T/C: 93 % of control

## COc1ccc(Br)cc1
[2]
  T/C: 104 % of control
dose: 50.0 mg/kg/injection, schedule: Q04DX003 (ip), vehicle: saline
  T/C: 100 % of control
[3]
  T/C: 118 % of control
dose: 100.0 mg/kg/injection, schedule: Q04DX003 (ip), vehicle: saline
  T/C: 105 % of control
dose: 200.0 mg/kg/injection, schedule: Q01DX009 (ip), vehicle: saline with Tween-80
  T/C: 109 % of control
dose: 200.0 mg/kg/injection, schedule: Q04DX003 (ip), vehicle: saline
  T/C: 110 % of control

## CCOC(=O)/[C](=N\N=P(N(C)C)(N(C)C)N(C)C)[Hg]/[C](=N/N=P(N(C)C)(N(C)C)N(C)C)C(=O)OCC
dose: 6.25 mg/kg/injection, schedule: Q01DX009 (ip), vehicle: saline
  T/C: 101 % of control and 94 % of control
dose: 12.5 mg/kg/injection, schedule: Q01DX009 (ip), vehicle: saline
  T/C: 99 % of control and 94 % of control
dose: 25.0 mg/kg/injection, schedule: Q01DX009 (ip), vehicle: saline
  T/C: 103 % of control and 108 % of control
dose: 50.0 mg/kg/injection, schedule: Q01DX009 (ip), vehicle: saline
  T/C: 106 % of control and 110 % of control

## COc1c(C(C)C)ccc2c1CCC1C3=C(CCC21C)C(=O)OC3 (configuration not stated)
dose: 6.25 mg/kg/injection, schedule: Q01DX009 (ip), vehicle: DMSO
  T/C: 109 % of control
dose: 12.5 mg/kg/injection, schedule: Q01DX009 (ip), vehicle: DMSO
  T/C: 100 % of control
dose: 25.0 mg/kg/injection, schedule: Q01DX009 (ip), vehicle: DMSO
  T/C: 106 % of control

## O=C(NCC(O)CNC(=O)Nc1ccc(C2=NCC(O)CN2)cc1)Nc1ccc(C2=NCC(O)CN2)cc1 (configuration not stated)
dose: 12.5 mg/kg/injection, schedule: Q01DX005 (ip), vehicle: saline with Tween-80
  T/C: 95 % of control
dose: 25.0 mg/kg/injection, schedule: Q01DX005 (ip), vehicle: saline with Tween-80
  T/C: 100 % of control
[1]
  T/C: 109 % of control and 97 % of control

## CCCNCC/C=C/[Si](C)(C)C
dose: 60.0 mg/kg/injection, schedule: Q01DX005 (ip), vehicle: saline
  T/C: 105 % of control
dose: 120.0 mg/kg/injection, schedule: Q01DX005 (ip), vehicle: saline
  T/C: 100 % of control

## C1CC2CC1C13OC1CC1OC213 (configuration not stated)
dose: 100.0 mg/kg/injection, schedule: Q04DX002 (ip), vehicle: Klucel (hydroxypropylcellulose) (HPC)
  T/C: 104 % of control
dose: 200.0 mg/kg/injection, schedule: Q04DX002 (ip), vehicle: Klucel (hydroxypropylcellulose) (HPC)
  T/C: 105 % of control
dose: 400.0 mg/kg/injection, schedule: Q04DX002 (ip), vehicle: Klucel (hydroxypropylcellulose) (HPC)
  T/C: 111 % of control

## O=C(CBr)N(O)c1ccccc1OCc1ccccc1
dose: 6.25 mg/kg/injection, schedule: Q01DX001 (ip), vehicle: saline
  T/C: 116 % of control
dose: 12.5 mg/kg/injection, schedule: Q01DX001 (ip), vehicle: saline
  T/C: 98 % of control
dose: 25.0 mg/kg/injection, schedule: Q01DX001 (ip), vehicle: saline
  T/C: 104 % of control

## CSc1nccn2cnnc12
dose: 100.0 mg/kg/injection, schedule: Q01DX001 (ip), vehicle: Klucel (hydroxypropylcellulose) (HPC)
  T/C: 101 % of control
dose: 200.0 mg/kg/injection, schedule: Q01DX001 (ip), vehicle: Klucel (hydroxypropylcellulose) (HPC)
  T/C: 104 % of control
dose: 400.0 mg/kg/injection, schedule: Q01DX001 (ip), vehicle: Klucel (hydroxypropylcellulose) (HPC)
  T/C: 101 % of control

## CC(=O)NC1=CC(=O)c2[nH]c(=O)[nH]c(=O)c2C1=O
dose: 3.0 mg/kg/injection, schedule: Q01DX005 (ip), vehicle: other
  T/C: 99 % of control
dose: 6.0 mg/kg/injection, schedule: Q01DX005 (ip), vehicle: other
  T/C: 98 % of control
dose: 12.0 mg/kg/injection, schedule: Q01DX005 (ip), vehicle: other
  T/C: 100 % of control

## NC1=C(O)C(=O)C(/C=C/c2ccccc2)O1 (configuration not stated)
[4]
  T/C: 90 % of control
[5]
  T/C: 90 % of control
[6]
  T/C: 87 % of control

## Cc1cccc(NC(=O)Oc2ccc(C#N)cc2)c1
[4]
  T/C: 97 % of control
[5]
  T/C: 109 % of control
[6]
  T/C: 106 % of control
